Experimental data: patent US11078153B2, “2-difluoro substituted 4-aminocyclopentanecarboxylic acids as inhibitors of gamma-aminobutyric acid aminotransferase and human ornithine aminotransferase” (Northwestern University, priority 2019, dated 2021)
Entries after “also recorded” stand apart in the source; their conditions may differ. Like-named read-outs stand apart in the source and are kept apart here.

What was measured:
OAT [1] = target: T1, OAT (Homo sapiens, UniProt P04181); assay: Time-dependent assay with OAT (kinact/KI); assay type: biochemical
T1 sequence (P04181 36-439 limits assumed): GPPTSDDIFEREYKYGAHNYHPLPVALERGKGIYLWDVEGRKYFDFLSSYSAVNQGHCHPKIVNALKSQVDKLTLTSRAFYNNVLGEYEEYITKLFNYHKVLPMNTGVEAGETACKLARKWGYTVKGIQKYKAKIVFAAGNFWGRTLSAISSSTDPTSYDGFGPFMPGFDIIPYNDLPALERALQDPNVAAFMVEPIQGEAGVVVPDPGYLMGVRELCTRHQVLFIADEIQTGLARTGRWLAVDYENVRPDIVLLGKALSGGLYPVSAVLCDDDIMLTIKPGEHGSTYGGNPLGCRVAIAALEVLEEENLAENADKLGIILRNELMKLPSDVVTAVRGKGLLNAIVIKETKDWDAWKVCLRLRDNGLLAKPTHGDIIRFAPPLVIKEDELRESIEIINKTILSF
Source text: In summary, enantiomerically pure 1 was synthesized from an enantiomerically pure Vince lactam in six steps.

OAT [2] = target: T1, OAT; assay: Partition ratio assay of OAT; assay type: biochemical; details: with α-KG, FIG. 5
Method: A partition ratio assay of OAT with NAL-1-47 was performed to determine the ratio of the compound acting as a substrate to the compound inactivating the enzyme.

GABA-AT [3] = assay: Time-dependent assay with GABA-AT; assay type: biochemical
OAT [4] = target: T1, OAT; assay: OAT fluoride release assay; assay type: biochemical; details: without α-ketoglutarate, FIG. 3
Method: An OAT fluoride release assay was performed with NAL-1-47 and it was calculated that there were 13.02 fluoride ions released per enzyme active site (FIG. 3).

GABA-AT [5] = assay: Concentration dependent assay of GABA-AT; assay type: biochemical
OAT [6] = target: T1, OAT; assay: Dialysis assay of NAL-1-47 with OAT; assay type: biochemical; details: for Percent Activity Remaining of OAT with NAL-1-47: pre-incubated overnight at 37° C.
Method: NAL-1-47 was incubated with OAT then dialyzed to determine whether it functions as a reversible inhibitor or an irreversible inactivator of OAT. NAL-1-47 was pre-incubated overnight at 37° C. with OAT. The remaining activity of the OAT was determined for 20, 50, 80, and 120 equiv of NAL-1-47 per OAT active site. The inactivated OAT was then dialyzed for 144 h and using a control, it was confirmed that the control OAT retained the majority of its activity after this dialysis.

OAT [7] = target: T1, OAT; assay: OAT inhibition / inactivation assay (concentration-dependent assay with OAT); assay type: biochemical
[8] = long-term administration; cited from earlier work
[9] = cocaine addiction in humans, 9-week double-blind trial; cited from earlier work
[10] = listed as S, S enantiomer, hydrochloride

Cl.N[C@H]1C[C@@H](C(=O)O)C(F)(F)C1 [NAL-1-47, (1S,4S)-4-amino-2,2-difluorocyclopentanecarboxylic acid hydrochloride]
kinact/KI (OAT [1]; OAT, Example 2, FIG. 4, read-out: kinact/KI (converted)): 1.13 M⁻¹ s⁻¹ | kinact/KI (OAT [1]; time-dependent assay with OAT, Example 1): 2.67 M⁻¹ s⁻¹ | partition ratio (OAT [2]): 54.5 | inhibitory activity against GABA-AT in time-dependent assays (in words) (GABA-AT [3]): no significant inhibitory activity | fluoride ions released per enzyme active site (OAT [4]): 13.02 | Activity Remaining (GABA-AT) (GABA-AT [5]; Conc. 0.0781 mM): 110.6% | Activity Remaining (GABA-AT) (GABA-AT [5]; Conc. 0.1563 mM): 100.7% | Activity Remaining (GABA-AT) (GABA-AT [5]; Conc. 0.3125 mM): 91.0% | Activity Remaining (GABA-AT) (GABA-AT [5]; Conc. 0.625 mM): 93.6% | Activity Remaining (GABA-AT) (GABA-AT [5]; Conc. 1.25 mM): 93.4% | Activity Remaining (GABA-AT) (GABA-AT [5]; Conc. 2.5 mM): 88.3% | Activity Remaining (GABA-AT) (GABA-AT [5]; Conc. 5 mM): 67.8% | Activity Remaining (GABA-AT) (GABA-AT [5]; Conc. 10 mM): 44.7% | inhibition of GABA-AT (in words) (GABA-AT [5]; hydrochloride): does not inhibit GABA-AT potently; also recorded: neither compound potently inhibited GABA-AT | inhibition of GABA-AT (in words) (GABA-AT [5]; listed as 1, hydrochloride): inhibitory activity against the enzymes GABA-AT and OAT | inhibition of GABA-AT (in words) (GABA-AT [5]; [10]): only very weakly inhibit GABA-AT | Percent Activity Remaining of OAT with NAL-1-47 (OAT [6]; 20 equiv per OAT active site): 67.3% | Percent Activity Remaining of OAT with NAL-1-47 after 144 h Dialysis (OAT [6]; 20 equiv): 63.3% | Percent Activity Remaining of OAT with NAL-1-47 (OAT [6]; 50 equiv per OAT active site): 52.5% | Percent Activity Remaining of OAT with NAL-1-47 after 144 h Dialysis (OAT [6]; 50 equiv): 38.5% | Percent Activity Remaining of OAT with NAL-1-47 (OAT [6]; 80 equiv per OAT active site): 31.7% | Percent Activity Remaining of OAT with NAL-1-47 after 144 h Dialysis (OAT [6]; 80 equiv): 27.6% | Percent Activity Remaining of OAT with NAL-1-47 (OAT [6]; 120 equiv per OAT active site): 21.1% | Percent Activity Remaining of OAT with NAL-1-47 after 144 h Dialysis (OAT [6]; 120 equiv): 15.1% | inhibition / inactivation of OAT (in words) (OAT [7]; hydrochloride): shown to inactivate OAT; also recorded: found to inhibit OAT potently | inhibition / inactivation of OAT (in words) (OAT [7]; listed as 1, hydrochloride): inhibitory activity against the enzymes GABA-AT and OAT; also recorded: inhibit OAT more potently than the racemic version of this compound; also recorded: determined as an inactivator; also recorded: selectively inactivate OAT and was more potent than the racemic compound | inhibition / inactivation of OAT (in words) (OAT [7]; [10]): inactivate OAT

N[C@@H]1C[C@H](C(=O)O)C(F)(F)C1 [NAL-1-73]
inhibitory activity against GABA-AT in time-dependent assays (in words) (GABA-AT [3]): no significant inhibitory activity | inhibition of GABA-AT (in words) (GABA-AT [5]): neither compound potently inhibited GABA-AT | Activity Remaining (GABA-AT) (GABA-AT [5]; Conc. 0.0781 mM): 100.9% | Activity Remaining (GABA-AT) (GABA-AT [5]; Conc. 0.1563 mM): 94.5% | Activity Remaining (GABA-AT) (GABA-AT [5]; Conc. 0.3125 mM): 95.1% | Activity Remaining (GABA-AT) (GABA-AT [5]; Conc. 0.625 mM): 103.5% | Activity Remaining (GABA-AT) (GABA-AT [5]; Conc. 1.25 mM): 88.8% | Activity Remaining (GABA-AT) (GABA-AT [5]; Conc. 2.5 mM): 85.2% | Activity Remaining (GABA-AT) (GABA-AT [5]; Conc. 5 mM): 70.3% | Activity Remaining (GABA-AT) (GABA-AT [5]; Conc. 10 mM): 55.3% | inhibition of GABA-AT (in words) (GABA-AT [5]; listed as R, R enantiomer): did not inhibit either OAT or GABA-AT potently | inhibition / inactivation of OAT (in words) (OAT [7]; listed as R, R enantiomer): did not inhibit either OAT or GABA-AT potently

C=CC(N)CCC(=O)O (centres unmarked) [Vigabatrin]
permanent vision loss, share of epilepsy patients [8]: 25-40% | patients achieving abstinence [9]: up to 28%
